From US7288273B1, “Gallotannins and ellagitannins as regulators of cytokine release” (The Penn State Research Foundation, priority 2000, dated 2007)

Assays:
[1] = test system: IL-1β secretion from h-PBMC's; assay: IL-1β release from h-PBMC's, ELISA; assay type: cell-based, human; conditions: for IL-1β secreted in the presence of 17c-20c: h-PBMC's 2nd subject, ± SD
Method: Authentic samples of agrimoniin and coriariin A were supplied by Professor Yoshida (Okayama University, Japan). Dimeric gallotannin (analog of coriariin A) and β-D-PGG were synthesized as described. LPS (E. coli 055:B5 phenol extract, MW range 50-100 KD). Ficoll-Histopaque (ρ=1.077 g/mL), Fetal Bovine Serum, sterile, hybridoma tested (FCS), gentamicin 10 mg/mL. L-glutamine, 200 mM. Dextran B-512 Leuconostoc Av M.W. 580000, and Trypan Blue stain were purchased from Sigma. Hanks Buffer Saline Solution 1×, with phenol red, mediatech (HBSS) and RPMI 1640 1×, mediatech were purchased from Fisher Scientific, Human IL-1β and TNF-α Enzyme Linked ImmunoSorbent Assay (ELISA) kits were purchased from R and D Systems, Minneapolis, Minn. Fresh heparinized blood was obtained from health human subjects (ages 20-34).
Dose-Response Data: General Procedure. H-PBMC's were isolated by reported procedures (10. 18). The cells counted and the viability was determined by Trypan Blue exclusion (typically, viability exceeded 95%). The concentration of the cells in the 0.5 mL wells was adjusted to 1×10^6 cells/well by diluting with the required amount of RPMI.
The appropriate amount of a tannin (or LPS) stock solution in HBSS was added to each well to furnish the concentration values reported in the Figures. […] The culture plates were incubated in a 5% CO2, 37° C. humidified incubator for the indicated time. At the end of the time interval, 450 μL of the culture supernatant from each well was harvested, after centrifugation at 400 g, 25° C., 10 min. with brake, and stored at −78° C. pending ELISA analysis for the cytokine(s). The ELISA assays were conducted per the manufacturer's instructions using standard calibration curves to calculate cytokine concentration from observed absorbance readings. The cytokine values reported are averages of three runs±SE.
The dimeric antitumor ellagitannins coriariin A and agrimoniin, the monomeric gallotannin β-D-pentagalloylglucose (β-D-PGG) and the dimeric gallotannin of this invention were all examined in this study. The dimeric gallotannin is an analog of coriariin A and is identical to the parent ellagitannin except that the galloyl rings at O(4) and O(6) are not joined in a hexahydroxydiphenoyl (HHDP) linkage. h-PBMC's were incubated with the compound under investigation for the indicated length of time and the amounts of both IL-1β and, independently, TNF-α, present in the culture supernatants was determined using commercially available ELISA kits. In each case, LPS was used as a positive control while untreated cells were reserved as negative controls.
In the third study, compounds 17c-20c were examined for their ability to induce secretion of IL-1β from h-PBMC's (FIG. 16). Recall from the introduction that the cytokine IL-1β is also released in an LPS-stimulated septic shock response. The compounds that cause very little secretion of IL-1β or none at all will be the optimal compounds for potential septic shock therapeutics because they will be less likely themselves to induce a septic shock response.

[2] = test system: LPS induced TNF-α secretion from h-PBMC's; assay: Inhibition of LPS induced TNF-α secretion from h-PBMC's; assay type: cell-based, human; conditions: for TNF-α secreted in the presence of LPS and 17c-20c: compound 10 μg/mL added after 45 minutes, h-PBMC's 3rd subject; for TNF-α secreted in the presence of LPS and 17c-20c / TNF-α secreted in the presence of LPS and 19c / 20c / TNF-α secreted in the presence of LPS and 18c-20c: ± SD; for TNF-α secreted in the presence of LPS and 19c / 20c: 8 h incubation; for TNF-α secreted in the presence of LPS and 19c / 20c / TNF-α secreted in the presence of LPS and 18c-20c: 4th subject
Method: In the second study, the ability of compounds 17c-20c to inhibit LPS induced TNF-α production in h-PBMC's was investigated using four assays. The first experiment was a kinetics run in which the h-PBMC's were initially incubated with a fixed concentration of LPS (5 μg/mL) for 45 minutes. This incubation period was followed by addition of a fixed concentration (10 μg/mL) of compounds 17c-20c. The cells were harvested at varying intervals of time. […] The optimal time was determined by comparing the amount of TNF-α secreted by LPS alone to the amount of TNF-α secreted by LPS and substrate at each time point.
The second assay determined the minimum amount of substrate required for inhibition. LPS (10 μg/mL) was incubated with h-PBMC's for 45 minutes followed by addition of 17c-20c at varying concentrations. The cell culture supernatant was harvested after 8 hours. The inherent variability in using cells from different subjects, or in the day of assay, made it difficult to compare overall effectiveness of inhibitors. Therefore, to more easily identify the concentration at which maximum inhibition occurs for a given compound, the TNF-α secretion was normalized by calculating a percent of maximum secretion value (based on LPS alone) (FIG. 13). […] The optimal concentration for inhibition varied between substrates, but the general dose response trend was the same. Overall, the maximum inhibition was 45% for 18c and 20c, and 25% for 19c.
The third assay investigated the ability of 17c, 18c, and 20c to inhibit LPS induced TNF-α secretion using a smaller dosage of LPS (5 μg/mL) (FIG. 14). Again, the response was dose dependent. The maximum inhibition was 45% for 17c and 20c, and 35% for 18c.
In the fourth assay the varying concentrations of substrates 17c-20c and LPS were added at the same time to determine the effect of addition sequence on the inhibition of TNF-α secretion (FIG. 15). The addition time seemed to make a difference in the overall dose response trend. However, maximum inhibition was the same as when the compounds were added 45 minutes after LPS addition (about 40% for each compound).
Finally, in the last study, analogs 19c and 20c were again tested for inhibition LPS induced TNF-α secretion (FIG. 17). In this assay a smaller dose of LPS was used to determine if inhibition was greater when much lower doses of LPS were present. The substrates were added 45 minutes after LPS addition and the cells were harvested after 8 hours. It doesn't appear as though the substrates are better inhibitors when smaller amounts of LPS are used, again perhaps reflecting receptor saturation with LPS at this dosage.

[3] = LPS 10 μg/mL, substrate added after 45 minutes, 8 hours
[4] = compound 0.6 μM added 45 minutes after LPS 10 μg/mL, 8 hours
[5] = compound 2.9 μM added 45 minutes after LPS 10 μg/mL, 8 hours
[6] = compound 5.9 μM added 45 minutes after LPS 10 μg/mL, 8 hours
[7] = compound 11.7 μM added 45 minutes after LPS 10 μg/mL, 8 hours
[8] = compound 23.5 μM added 45 minutes after LPS 10 μg/mL, 8 hours

Structure (SMILES) | IL-1β secreted in the presence of 17c-20c ([1]; compound 0.6 μM) | IL-1β secreted in the presence of 17c-20c ([1]; compound 2.9 μM) | IL-1β secreted in the presence of 17c-20c ([1]; compound 5.9 μM) | IL-1β secreted in the presence of 17c-20c ([1]; compound 11.8 μM) | IL-1β secreted in the presence of 17c-20c ([1]; compound 17.6 μM) | IL-1β secreted in the presence of 17c-20c ([1]; compound 23.5 μM) | IL-1β secreted in the presence of 17c-20c ([1]; compound 29.4 μM) | TNF-α secreted in the presence of LPS and 17c-20c ([2]; LPS 5 μg/mL, time 1 h) | TNF-α secreted in the presence of LPS and 17c-20c ([2]; LPS 5 μg/mL, time 4 h) | TNF-α secreted in the presence of LPS and 17c-20c ([2]; LPS 5 μg/mL, time 8 h) | TNF-α secreted in the presence of LPS and 17c-20c ([2]; LPS 5 μg/mL, time 12 h) | TNF-α secreted in the presence of LPS and 17c-20c ([2]; LPS 5 μg/mL, time 16 h) | TNF-α secreted in the presence of LPS and 17c-20c ([2]; LPS 5 μg/mL, time 24 h) | maximum inhibition of LPS induced TNF-α secretion ([2]; LPS 5 μg/mL, 3rd subject) | maximum inhibition of LPS induced TNF-α secretion [2, 3] | TNF-α secreted in the presence of LPS and 18c-20c [2, 4] | TNF-α secreted in the presence of LPS and 18c-20c [2, 5] | TNF-α secreted in the presence of LPS and 18c-20c [2, 6] | TNF-α secreted in the presence of LPS and 18c-20c [2, 7] | TNF-α secreted in the presence of LPS and 18c-20c [2, 8] | other results
O=C(CCCCCC(=O)OC1O[C@H](COC(=O)c2cc(O)c(O)c(O)c2)[C@@H](OC(=O)c2cc(O)c(O)c(O)c2)[C@H](OC(=O)c2cc(O)c(O)c(O)c2)[C@H]1OC(=O)c1cc(O)c(O)c(O)c1)OC1O[C@H](COC(=O)c2cc(O)c(O)c(O)c2)[C@@H](OC(=O)c2cc(O)c(O)c(O)c2)[C@H](OC(=O)c2cc(O)c(O)c(O)c2)[C@H]1OC(=O)c1cc(O)c(O)c(O)c1 (mixture of isomers) [Compound 20c, 1,1′-O-2,2′,3,3′,4,4′,6,6′-Tetrakis(3,4,5-trihyroxybenzoyl)-β,β′-D,D′-glucopyranosylpimelate] | 0 pg/mL | 0 pg/mL | 0 pg/mL | 184.1 pg/mL | 230.0 pg/mL | 0 pg/mL | 204.2 pg/mL | 243.6 ± 52.8 pg/mL | 2370.1 ± 95.7 pg/mL | 2889.8 ± 383.2 pg/mL | 2313.2 ± 339.1 pg/mL | 2628.4 ± 571.0 pg/mL | 2356.4 ± 400.3 pg/mL | 45% | 45% | 89.8 ± 9.2 % max. response | 65.6 ± 8.3 % max. response | 67.1 ± 8.9 % max. response | 63.3 ± 4.7 % max. response | 63.9 ± 13.9 % max. response | IL-1β secretion from h-PBMC's, in words ([1]; h-PBMC's): lowest amounts of IL-1β production; TNF-α secreted in the presence of LPS and 19c / 20c ([2]; compound 0.6 μM added 45 minutes after LPS 1 μg/mL): 109.1 ± 14.9 % max. response; TNF-α secreted in the presence of LPS and 19c / 20c ([2]; compound 1.8 μM added 45 minutes after LPS 1 μg/mL): 110.6 ± 1.3 % max. response; TNF-α secreted in the presence of LPS and 19c / 20c ([2]; compound 3.5 μM added 45 minutes after LPS 1 μg/mL): 62.4 ± 10.2 % max. response; TNF-α secreted in the presence of LPS and 19c / 20c ([2]; compound 5.9 μM added 45 minutes after LPS 1 μg/mL): 69.5 ± 27.9 % max. response; TNF-α secreted in the presence of LPS and 19c / 20c ([2]; compound 11.8 μM added 45 minutes after LPS 1 μg/mL): 98.4 ± 12.1 % max. response
O=C(OC[C@H]1O[C@@H](OC(=O)c2cccc(C(=O)O[C@@H]3O[C@H](COC(=O)c4cc(O)c(O)c(O)c4)[C@@H](OC(=O)c4cc(O)c(O)c(O)c4)[C@H](OC(=O)c4cc(O)c(O)c(O)c4)[C@H]3OC(=O)c3cc(O)c(O)c(O)c3)c2)[C@H](OC(=O)c2cc(O)c(O)c(O)c2)[C@@H](OC(=O)c2cc(O)c(O)c(O)c2)[C@@H]1OC(=O)c1cc(O)c(O)c(O)c1)c1cc(O)c(O)c(O)c1 [Compound 18c, 1,1′-O-2,2′,3,3′,4,4′,6,6′-Tetrakis(3,4,5-trihydroxybenzoyl)-β,β′-D-glucopyranosylisophthalate] | 0 pg/mL | 4.7 ± 8.1 pg/mL | 3.2 ± 5.5 pg/mL | 34.1 ± 48.2 pg/mL | 1266.0 ± 78.3 pg/mL | 631.2 ± 94.4 pg/mL | 2113.4 ± 393.0 pg/mL | 594.6 ± 93.2 pg/mL | 1523.3 ± 472.8 pg/mL | 2829.3 ± 52.6 pg/mL | 2448.1 ± 43.6 pg/mL | 3956.3 ± 524.5 pg/mL | 2002.1 ± 95.1 pg/mL | 35% | 45% | 69.0 ± 4.9 % max. response | 71.9 ± 15.2 % max. response | 59.5 ± 9.5 % max. response | 54.4 ± 15.4 % max. response | 60.6 ± 9.9 % max. response | 
